In US20240190880A1 (THE REGENTS OF THE UNIVERSITY OF MICHIGAN, priority 2021, published 2024):

Target: T1, ER (Homo sapiens, UniProt P03372)
T1 construct: host or cells: T47D and MCF7 human breast cancer cells
T1 sequence (P03372 1-595): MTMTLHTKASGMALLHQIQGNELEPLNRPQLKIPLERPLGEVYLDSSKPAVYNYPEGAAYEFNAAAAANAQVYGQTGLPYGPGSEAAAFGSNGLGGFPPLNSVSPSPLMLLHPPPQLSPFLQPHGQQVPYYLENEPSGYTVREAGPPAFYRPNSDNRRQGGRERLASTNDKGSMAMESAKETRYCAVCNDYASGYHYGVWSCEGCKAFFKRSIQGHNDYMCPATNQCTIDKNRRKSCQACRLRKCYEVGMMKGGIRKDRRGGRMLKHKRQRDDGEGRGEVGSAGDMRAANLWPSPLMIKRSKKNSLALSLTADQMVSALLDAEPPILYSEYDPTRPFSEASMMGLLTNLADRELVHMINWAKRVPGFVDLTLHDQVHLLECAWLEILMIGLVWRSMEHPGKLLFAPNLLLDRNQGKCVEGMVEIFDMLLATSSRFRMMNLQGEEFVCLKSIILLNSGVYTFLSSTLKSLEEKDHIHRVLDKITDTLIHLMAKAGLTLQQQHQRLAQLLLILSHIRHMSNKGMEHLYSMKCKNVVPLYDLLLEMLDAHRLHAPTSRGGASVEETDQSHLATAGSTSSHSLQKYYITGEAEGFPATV
Test: ER degradation activity, in-cell western blot analysis in T47D cells
Type: cell-based
Details: 16 hours, Table A does not say which cell line (T47D or MCF7), read-out: Potency (DC50)
Summary of the method: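 Read-out is near-infrared fluorescence from an in-cell western, expressed as ER percentage relative to untreated and DMSO controls taken as 100%. T47D breast cancer cells received compound for 16 h in 0.5% DMSO.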

C[C@@H]1Cc2cc(O)ccc2[C@@H](c2c(F)cc(N3CCC4(CCN(CC(=O)N5Cc6cc7c(cc6C5)C(=O)N(C5CCC(=O)NC5=O)C7=O)C4)CC3)cc2F)N1CC(C)(F)F (stereo partly drawn) [E 33, 6-(2-(8-(4-((1S,3R)-2-(2,2-difluoropropyl)-6-hydroxy-3-methyl-1,2,3,4-tetrahydroisoquinolin-1-yl)-3,5-difluorophenyl)-2,8-diazaspiro[4.5]decan-2-yl)acetyl)-2-(2,6-dioxopiperidin-3-yl)-6,7-dihydropyrrolo[3,4-f]isoindole-1,3(2H,5H)-dione] and C[C@@H]1Cc2c([nH]c3ccccc23)[C@@H](c2c(F)cc(N3CCC(CN4CCC(C(=O)N5Cc6cc7c(cc6C5)C(=O)N(C5CCC(=O)NC5=O)C7=O)CC4)CC3)cc2F)N1CC(F)F (stereo partly drawn) [E 238, 6-(1-((1-(4-((1R,3R)-2-(2,2-difluoroethyl)-3-methyl-2,3,4,9-tetrahydro-1H-pyrido[3,4-b]indol-1-yl)-3,5-difluorophenyl)piperidin-4-yl)methyl)piperidine-4-carbonyl)-2-(2,6-dioxopiperidin-3-yl)-6,7-dihydropyrrolo[3,4-f]isoindole-1,3(2H,5H)-dione] cannot be ordered by DC50: > 100 nM for the first, > 100 nM for the second.

O=C1CCC(N2C(=O)c3cc4c(cc3C2=O)CN(C(=O)CN2CCC3(CC2)CCN(c2ccc(C(=C(CCCl)c5ccccc5)c5ccc(O)cc5)cc2)CC3)C4)C(=O)N1 (stereo not shown) [E 195, 6-(2-(9-(4-(4-chloro-1-(4-hydroxyphenyl)-2-phenylbut-1-en-1-yl)phenyl)-3,9-diazaspiro[5.5]undecan-3-yl)acetyl)-2-(2,6-dioxopiperidin-3-yl)-6,7-dihydropyrrolo[3,4-f]isoindole-1,3(2H,5H)-dione] and O=C1CCC(N2C(=O)c3cc4c(cc3C2=O)CN(CC(=O)N2CCC3(CC2)CN(c2ccc([C@@H]5c6ccc(O)cc6CC[C@@H]5c5ccccc5)cc2)C3)C4)C(=O)N1 (mixture of isomers) [E 10, Rac-2-(2,6-dioxopiperidin-3-yl)-6-(2-(2-(4-((1R,2S)-6-hydroxy-2-phenyl-1,2,3,4-tetrahydronaphthalen-1-yl)phenyl)-2,7-diazaspiro[3.5]nonan-7-yl)-2-oxoethyl)-6,7-dihydropyrrolo[3,4-f]isoindole-1,3(2H,5H)-dione] fall in the same range of DC50: 10 to 100 nM for the first, 10 to 100 nM for the second.

In the case of O=C1CCC(N2C(=O)c3cc4c(cc3C2=O)CN(CC2CCN(CC3CCN(c5ccc([C@@H]6c7ccc(O)cc7CC[C@@H]6c6ccccc6)cc5)CC3)CC2)C4)C(=O)N1 (stereo partly drawn) [E 217, 2-(2,6-dioxopiperidin-3-yl)-6-((1-((1-(4-((1R,2S)-6-hydroxy-2-phenyl-1,2,3,4-tetrahydronaphthalen-1-yl)phenyl)piperidin-4-yl)methyl)piperidin-4-yl)methyl)-6,7-dihydropyrrolo[3,4-f]isoindole-1,3(2H,5H)-dione], the DC50 is reported as > 100 nM.

Same assay, conditions: compounds 16 hours, Table A does not say whether T47D or MCF7, read-out: Potency (DC50)

C[C@@H]1Cc2c([nH]c3ccccc23)[C@@H](c2c(F)cc(C3=CCC(C(=O)N4CCC(N5Cc6cc7c(cc6C5)C(=O)N(C5CCC(=O)NC5=O)C7=O)CC4)CC3)cc2F)N1CC1(F)CC1 (stereo partly drawn) [E 485, 6-(1-(3′,5′-difluoro-4′-((1R,3R)-2-((1-fluorocyclopropyl)methyl)-3-methyl-2,3,4,9-tetrahydro-1H-pyrido[3,4-b]indol-1-yl)-2,3,4,5-tetrahydro-[1,1′-biphenyl]-4-carbonyl)piperidin-4-yl)-2-(2,6-dioxopiperidin-3-yl)-6,7-dihydropyrrolo[3,4-f]isoindole-1,3(2H,5H)-dione] and C[C@@H]1Cc2c([nH]c3ccccc23)[C@@H](c2ccc(C3=CCC(C(=O)N4CCC(N5Cc6cc7c(cc6C5)C(=O)N(C5CCC(=O)NC5=O)C7=O)CC4)CC3)cc2F)N1CC(C)(F)F (stereo partly drawn) [E 482, 6-(1-(4′-((1R,3R)-2-(2,2-difluoropropyl)-3-methyl-2,3,4,9-tetrahydro-1H-pyrido[3,4-b]indol-1-yl)-3′-fluoro-2,3,4,5-tetrahydro-[1,1′-biphenyl]-4-carbonyl)piperidin-4-yl)-2-(2,6-dioxopiperidin-3-yl)-6,7-dihydropyrrolo[3,4-f]isoindole-1,3(2H,5H)-dione] cannot be ordered by DC50: > 100 nM for the first, > 100 nM for the second.
